Experimental data published in the CheMixHub viscosity set.
Values joined by “and” are separate entries in the source; they are usually repeats but may differ in a detail not shown here. Equal entries are not always repeated.

Test: xn = mol fraction of the nth substance listed

CCCCCCCCN(CCCCCCCC)CCCCCCCC + Cc1ccccc1
298.15 K, 101.33 kPa
Conditions	viscosity [mPa·s]
x1 = 0.015	0.595
x1 = 0.033	0.646
x1 = 0.075	0.775
x1 = 0.231	1.405

CCCCOCCO + CCC(C)=O
298.15 K, 101 kPa
Conditions	viscosity [mPa·s]
x2 = 0.154	2.106
x2 = 0.2906	1.609
x2 = 0.4126	1.234
x2 = 0.5221	0.939
x2 = 0.6211	0.727
x2 = 0.7108	0.607
x2 = 0.7927	0.519
x2 = 0.8676	0.466
x2 = 0.9365	0.416

c1ccc2c(c1)CCCC2 + CCCCCCCCCCCC
323.15 K, 100 kPa
Conditions	viscosity
x1 = 0.399	0.965 mPa·s and 0.964 mPa·s
x1 = 0.714	1.06 mPa·s

COC(=O)c1ccccc1 + CCCO
viscosity [mPa·s], 100 kPa
Conditions	x1 = 0.05	x1 = 0.1	x1 = 0.2	x1 = 0.3	x1 = 0.4	x1 = 0.5	x1 = 0.6	x1 = 0.65	x1 = 0.8	x1 = 0.9
293.2 K	2.016	1.887	1.724	1.65	1.622	1.621	1.649	1.669	1.76	1.872
298.2 K	1.794	1.685	1.547	1.487	1.464	1.466	1.492	1.511	1.594	1.693
303.2 K	1.601	1.509	1.395	1.344	1.327	1.332	1.357	1.375	1.453	1.54
308.2 K	1.434	1.356	1.262	1.22	1.209	1.215	1.239	1.257	1.33	1.41
313.2 K	1.288	1.223	1.145	1.112	1.104	1.113	1.138	1.154	1.223	1.297
